For data set [1], the system named is apoptotic genes in MCF-12A cells. The data set is described as follows: Apoptosis-related gene expression, qRT-PCR. The class given is cell-based, human. Particulars: IC25 concentration, 24 h, relative to negative control. Here is the method: (§1) A broad scope of molecular targets involved in the apoptotic pathway were selected for analysis using qRT-PCR including initiators, mediators and inhibitors. These gene targets along with their cellular location and associated primer set are outlined in Table 2. Primer sets for each gene were designed using NCBI nucleotide sequences and the Primer3 application (Table 3). Once designed, the primers were synthesised by Sigma Aldrich, Ireland.
(§2) MCF-7 and MCF-12A cells were seeded at a density of 1 × 10^5 in T25 flasks and incubated for 24 h allowing for attachment. Following incubation, the seeding media was removed, and the cells were washed with PBS. […] Post-exposure, RNA was isolated from the cells. Tri-reagent^Ⓡ (Sigma, Ireland) (Cat# T9424) was added to the cells followed by centrifugation at 300 g for 5 min. The RNA was precipitated using chloroform, followed by centrifugation and washing of the pellet using 75% ethanol. The RNA was resuspended in 30 μl of nuclease-free water. The RNA was either used immediately for qRT-PCR or stored at −80 ℃. The RNA from each sample was quantified using the NanoDrop™ 2000 Spectrophotometer (Thermo Fisher Scientific, Ireland). The A260/A230 ratio was measured to ensure the purity of each sample. Prior to cDNA synthesis, all samples were adjusted to a concentration of 100 ng. The RNA was then reverse transcribed into cDNA using the Quanta Biosciences Kit (Quanta Biosciences, USA) (Cat# 95047). Using the SimpliAmp Thermal Cycler (Applied Biosystems; Thermo Fisher Scientific, Ireland), the following settings were applied: 5 min at 22 ℃, 30 min at 42 ℃, 5 min at 85 ℃; samples were then maintained in an indefinite hold at 4 ℃ prior to being used for quantitative real-time PCR. The cDNA templates were amplified and analysed using SYBR™ Green (Fisher Scientific, UK) (Cat#10187094). Using the 7500 fast Real-Time PCR System (Applied Biosystems, USA), the following thermal cycling setting were applied for amplification: Pre-Incubation (1 cycle) 95 ℃, 5 Minutes, 4.4 ℃ ramp; Amplification (45 cycles) 95 °C 10 s ramp 4.4 °C, 60 °C 10 s ramp 2.2 °C, 72 °C 10 s ramp 4.4 °C; Melting Curve (1 cycle) 95 °C 5 s ramp 4.4 °C, 65 °C 1 min ramp 2.2 °C, 97 °C continuous ramp 0.11 °C acquisition 10 per °C; Cooling (1 cycle) 40 °C 10 s ramp 1.5 °C. Two reference genes, actin and tubulin, were employed to determine the expression of the target genes. No template controls were included to confirm the absence of template contamination and auto-fluorescence. Each PCR plate contained three technical replicates per sample and gene target, with each experiment repeated three independent times using three individual biological replicates.
(§3) qRT-PCR data was analysed by first using the Vandesompele method to calculate the geometric mean of Ct values for the reference genes, actin and tubulin. These values were used for normalisation of the target gene expression values which were then calculated using the Livak and Schmittgen formula: 2^−ΔCt1(test)−ΔCt2(control) (Livak and Schmittgen [2001]; Vandesompele et al. [2002]).
(§4) The expression profiles (Fig. 4) display the log(2) transformed mean expression value for each gene target relative to the negative control. Expression values for each target were determined relative to the geometric means of reference genes. […] Each graph contains a threshold line, set at the value of one, this represents baseline expression levels of genes.
For orientation: Real-time PCR tracks product formation cycle by cycle.

In data set [2] the test system is apoptotic genes in MCF-7 cells. Put plainly: Apoptosis-related gene expression, qRT-PCR. The class given is cell-based, human. Particulars: MCF-7, IC25 concentration, 24 h, relative to negative control. The protocol: as §1, §2, §3, §4
Data set [3] concerns caspase-3/7 in MCF-7 cells. Put plainly: Caspase 3/7 expression, FLICA (FAM-DEVD-FMK) flow cytometry. Type of data set: cell-based, human. Particulars: MCF-7, IC25 concentration, 24 h. Here is the method: The expression of caspase-3/7 in MCF-7 and MCF-12A cells was determined using the VybrantTM FAM™ Caspase-3 and Caspase-7 Assay Kit (Cat# V35118) (Thermo Fisher Scientific, Ireland). Cells were seeded at a density of 1 × 10^5 in T25 flasks and incubated in routine conditions for 24 h. […] Post-exposure, the cells were harvested for staining.
Flow cytometry data analysis was performed with the CytExpert package (Ver. 2.4) (Beckman Coulter, USA) and Microsoft^Ⓡ Excel (USA). The mean MFI and percentage cells were calculated using these packages, followed by one-way ANOVA analysis with post hoc Bonferroni correction using GraphPad Prism (Ver. 9.4) (GraphPad, USA).
The expression of caspase-3/7 was analysed in MCF-7 and MCF-12A cells using fluorescent labelled inhibitors of caspase (FLICA): FAM-DEVD-FMK. […] Following the apoptosis induction study, it was of interest to determine whether the complexes were stimulating the executioner caspases triggering the irreversible proteolytic degradation of cells, culminating in cell death. […] These three complexes were selected based on their structural similarities, while incorporating alternative metal centres.

The test system of data set [4] is HT29, SW480 and SW620. More on the design: method as in Kellett et al. [2011]; Slator et al. [2017]. Particulars: ref Kellett et al. [2011], Slator et al. [2017]; cited from earlier work.
The test system of data set [5] is Galleria Mellonella. More on the design: method as in Kellett et al. [2011]; Slator et al. [2017]. Particulars: ref Kellett et al. [2011], Slator et al. [2017]; cited from earlier work.
Data set [6] deals with HaCaT cells. More on the design: method as in Kellett et al. [2011]; Slator et al. [2017]. Particulars: HaCaT vs colorectal cancer lines; ref Kellett et al. [2011]; Slator et al. [2017]; cited from earlier work.

Consider two molecules from PMC12119673, “Apoptotic cell death induced by copper (II), manganese (II) and silver (I) complexes containing bridging dicarboxylate and 1,10-phenanthroline ligands: one of the multi-modes of anticancer activity?” (Biometals, 2025).

`N.N.[Cl][Pt][Cl]` [Cisplatin, reference compound]: in data set [1], the “Caspase gene expression (caspase-9, -8, -3)” value is listed as “all caspases seen to be activated”; the “Pro-apoptotic gene expression (BID, BIM, BAD, BAX)” value is “pro-apoptotic BIM and BAD were upregulated”. In data set [2], the “Caspase gene expression (caspase-9, -8, -3)” value was “all caspases seen to be activated”; the “Pro-apoptotic gene expression (BID, BIM, BAD, BAX)” value was “pro-apoptotic BIM and BAD were upregulated”. Further, the “Expression of caspase-3/7 (% cells)” value in data set [3] is “lowest expression levels”.

As for `O.O.O=C([O-])CCCCCCC(=O)[O-].[Mn+2].[Mn+2].c1cnc2c(c1)ccc1cccnc12.c1cnc2c(c1)ccc1cccnc12.c1cnc2c(c1)ccc1cccnc12.c1cnc2c(c1)ccc1cccnc12` [[Mn2(μ-oda)(phen)4(H2O)2]^2+], the “Cytotoxicity towards colorectal cancers” value in data set [4] is reported as “nano-molar cytotoxicity”. Also, the In vivo tolerance result in data set [5] is “well-tolerated”. Also, in data set [6], the “Reduction in potency towards non-cancerous cells” value is given as “almost tenfold reduction in potency”.
